# From the METLIN SMRT retention time set (Domingo-Almenara et al. 2019)
# Experiment: gradient 5% acetonitrile 3 min, to 50% in 2 min, to 85% in 15 min, held 3 min, 100 µL/min
# Conditions: column: Zorbax Extend-C18 2.1 x 50 mm; eluents: water / acetonitrile, 0.1% formic acid
# In short: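 Standards, all pure, were combined into mixtures of ~100 molecules and run at 100 μL/min on a Zorbax Extend-C18 column (2.1 × 50 mm, 1.8 μm) with water and acetonitrile, each containing 0.1% formic acid. A coupled quadrupole time-of-flight mass spectrometer operated in positive and negative ionization mode. Retention time values come from computationally picked adduct peaks, each inspected manually.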
row,SMILES,RP-LC retention time [s]
1,CN1c2cc(F)ccc2C(=O)NC12CCN(C(=O)Nc1ccccc1)CC2,695
2,O=C(C1CC1)N1[C@H]2CC[C@@H]1c1cnc(-c3ccccc3)nc1C2,817
3,CC(=O)Nc1ccc(S(=O)(=O)N2CCC(CN3CCCCCC3)CC2)cc1,588
4,CC(NC(=O)c1cccs1)C(=O)Nc1nc2ccccc2[nH]1 (stereo not given),612
5,CCOC(=O)c1ccc(NS(=O)(=O)N2CCOCC2)cc1,724
6,O=S(=O)(c1ccc2nncn2c1)N(Cc1cc(F)cc(F)c1)c1ccccc1,861
7,O=c1n(Cc2ccc(F)cc2Cl)nc2ccc(S(=O)(=O)N3CCCCC3)cn12,990
8,COc1ccc(-c2nc(C3CC(=O)N(c4ccc(OC)c(OC)c4)C3)no2)c(C)c1 (stereo not given),911
9,Cn1c(CNC(=O)c2cccc(N3CCNC(c4ccccc4)C3)n2)nc2ccccc21 (stereo not given),573
10,O=C(NCc1ccc(F)cc1)NC1CCN(C(=O)N2C[C@H]3C[C@H](C2)[C@H]2CCCC(=O)N2C3)CC1,658
11,COCCNC(=O)c1cn2ccc(C)cc2n1,616
12,CCNc1cc(N2CCCC(CCC(=O)Nc3ccc4c(c3)OCCO4)C2)ncn1 (stereo not given),674
13,COc1ccc(NC(=O)Cn2c(N3CCCC3)nc(C)cc2=O)cc1OC,601
14,Cc1cc(C(=O)NCc2ccc3c(c2)OCO3)c2ccccc2n1,637
15,COC(=O)C1C(=O)C2=C(CC1C)NC(C)=C(C(=O)OC(C)C)C2c1ccccc1OC (stereo not given),908
16,CCOc1ccc(-c2nc(-c3ccc4ncn(CC)c4c3)no2)cc1,829
17,CCn1c(=O)c2ccccc2n(Cc2nc(-c3cccc(OC)c3)no2)c1=O,992
18,CC1CN(c2ccc(Cl)cc2)c2nc3c(c(=O)n(CC(=O)O)c(=O)n3C)n2C1 (stereo not given),790
19,COc1ccc(N2C(=O)c3cc(C)nn3CC2(C)C(=O)NCc2ccc(F)cc2)cc1 (stereo not given),770
20,C=CCNC(=O)c1nc(C(=O)N2CCc3ccccc3C2)cs1,811
21,COc1cccc(NC(=O)CN2C(=O)NC3(CCCCC3)C2=O)c1,724
22,COc1cc(NC(=O)Nc2nccn(-c3ccc(C)c(C)c3)c2=O)cc(OC)c1,955
23,Clc1cc(Cl)cc(-c2ccc(CNCc3ccccn3)o2)c1,742

row,SMILES,RP-LC retention time [s]
1,Cn1cc(-c2ccc(F)cc2)cc1C(=O)N1CCCC1,906
2,CCn1cc2c3c(cccc31)CN(C(=O)Nc1cc(C)ccc1OC)CC2,1080
3,Cc1ccc(Cn2c(=O)n(CCNC(=O)c3ccoc3)c3ncccc32)cc1,760
4,CC1(C)C2CCC(CN=C(N)CSS(=O)(=O)O)C1C2 (stereo not given),738
5,Cc1nnc2n1CCC(NC(=O)CC1=CCCCC1)CC2 (stereo not given),605
6,CC1=C(c2ccc(F)cc2)S(=O)(=O)N=C1N1CCCN(C(=O)c2ccc(F)cc2)CC1,835
7,Cc1noc(C)c1CCC(=O)N1CC(c2nc3ccccc3[nH]2)C1,552
8,NC(=O)[C@@H]1C[C@H](Oc2cccnc2)CN1C(=O)CC1CCCC1,584
9,COc1ccc(C2CC(=O)N(c3ccc(F)c(Cl)c3)C(=O)C2)cc1OC,915
10,O=C(Cn1c(=O)c2cccn2c2ccc(F)cc21)NCc1cccc(Br)c1,903
11,CC1CCN(S(=O)(=O)c2ccc3c(c2)CCCC(=O)N3CC(=O)N2CCN(C)CC2)CC1,656
12,O=S(=O)(Cc1cccc(Cl)c1)N1CCc2nc(-c3ccc(F)cc3)ncc2C1,1110
13,Cc1ccc(NC(=O)Cn2ncc3c(c2=O)N(CC2CC2)C(=O)CS3)cc1Cl,884
14,CSc1cccc2sc(Nc3nc(C)c(C(C)=O)s3)nc12,842
15,COc1cc([C@@H]2c3cc4c(cc3[C@H](O)[C@@H](CO)[C@@H]2C(=O)N2CCOCC2)OCO4)cc(OC)c1OC,632
16,Cc1ccccc1CNC(=O)C1(c2ccc(NS(C)(=O)=O)cc2)CCCCC1,917
17,C=CCN1C(=O)COc2ccc(-c3nc(NC(=O)C4CCCCC4)sc3C)cc21,1080
18,Cc1cc(C)n(-c2ccnc(N3CCC(C(=O)NCC4CC4)CC3)n2)n1,739
19,Cc1nn(C)cc1CN(C)C(=O)COc1ccc(NC(=O)C2CC2)cn1,604
20,COc1cccc(NC(=O)N2CCC3(CC2)NC(=O)c2ccc(Cl)cc2N3C)c1,780
21,CN(CC1CCOC1)C(=O)Nc1ccccc1 (stereo not given),653
22,CC(C)OC(=O)c1cc2ccsc2n1CC(=O)NCc1ccc(F)cc1,954
23,COC[C@@H]1CN(Cc2ccc(OC)cc2OC)C[C@H]1c1ccncc1,590

row,SMILES,RP-LC retention time [s]
1,Cc1nn(C)c(C)c1CCCN(C)C(=O)COc1ccc(NC(=O)C2CC2)cn1,605
2,COc1ccc(NC(=O)Cn2c(=O)c3cc(C)nn3c3ncccc32)c(OC)c1,694
3,O=C(NCc1c(F)cccc1Cl)C(=O)c1c[nH]c2ccccc12,931
4,CCCNC(=O)NCCC1CCN(S(=O)(=O)c2ccccc2)CC1,753
5,CN(C)c1ccc(CNC(=O)c2cc3n(n2)CC(C)(C(=O)NCc2ccccc2)N(C)C3=O)cc1 (stereo not given),607
6,Cc1cccc(Sc2nccnc2N2CCCC(C(=O)NC3CCCCCC3)C2)c1 (stereo not given),1230
7,O=C1COc2ccccc2N1Cc1nc(-c2ccc3c(c2)ncn3C2CCCC2)no1,766
8,Cc1ccc2c(Nc3ccc(C)c(C)c3)c(C(=O)N3CCCC(C)C3)cnc2n1 (stereo not given),681
9,Cc1ccccc1CC(=O)NC(C(=O)Nc1nc2ccccc2[nH]1)C(C)C (stereo not given),730
10,CN1CCn2cc(S(=O)(=O)Nc3ccc(F)cc3)cc2C1=O,678
11,COc1ccc(S(=O)(=O)N2CC=C(c3cn(C(C)C)c4ncccc34)CC2)cc1,1070
12,COc1ccc(N2CCN(c3cc(SCC(=O)Nc4cc(C)ccc4C)ncn3)CC2)cc1,1020
13,O=C(Nc1cccc([N+](=O)[O-])c1)C1(c2cccs2)CCOCC1,558
14,Cc1ccc(-c2cc(C(F)(F)F)n3nc(C(=O)O)cc3n2)cc1,943
15,CCOc1ccccc1NC(=O)N1CCCC(C)(C(=O)NCc2cccc(OC)c2)C1 (stereo not given),958
16,O=C(NCCOc1ccc2nnc(-c3cccc(F)c3)n2n1)c1ccc(=O)[nH]n1,598
17,Cc1nnc2cc(N3CCN(C(=O)Nc4cccc(F)c4)CC3)cnn12,624
18,O=C1CC(C(=O)N2CCc3ccccc32)CN1CCc1c[nH]c2ccc(Cl)cc12 (stereo not given),880
19,Cc1ccc(-c2nc(-c3ccc(S(=O)(=O)N4CCC(C(=O)N5CCCC5)CC4)cc3)no2)cc1C,1180
20,Cc1nc2cc3c(cc2n1CC(=O)NCc1ccc2c(c1)OCCCO2)OCCO3,615
21,CCCn1nccc1-c1csc(S(=O)(=O)N2CCCC2)c1,912
22,Cc1oc(C2CCN(C(=O)c3ccc(C#N)cc3)CC2)nc1C(=O)N(C)C,654
23,Cc1ccc(CNC(=O)Cn2nc3c4ccc(Cl)cc4ncn3c2=O)cc1,753

row,SMILES,RP-LC retention time [s]
1,COc1ccc(-c2nnc(N3CCC(C(=O)NCc4cc(F)cc(F)c4)CC3)o2)cc1,899
2,O=C(Cn1cnc2c(-c3ccc(F)cc3)csc2c1=O)Nc1ccc(Br)cc1F,1030
3,O=C(Nc1ccc(N2CCN(C3CCCC3)C2=O)nc1)c1ccc(Br)cc1,876
4,CCN(CC)S(=O)(=O)c1cccc(-c2nnc(-c3ccc(OC)cc3)o2)c1,1020
5,Cn1nc2c(c1NC(=O)C1(c3ccc(Cl)cc3)CCCC1)CCC2,907
6,CC(=O)Nc1cc2c(cc1Sc1ccc(Cl)cc1)n(C)c(=O)n2C,806
7,Nc1ccccc1NC(=O)c1ccc(CNc2nccc(-c3cccnc3)n2)cc1,664
8,Cc1cc(NC(=O)CSc2nnc(NC(=O)c3snnc3C)s2)no1,666
9,CNC(=O)CN(C)C(=O)C1CCCCc2nnc(C(C)C)n21 (stereo not given),542
10,Cc1cccc(-c2noc(Cn3c(=O)n(-c4ccc(Cl)cc4)c(=O)c4sccc43)n2)c1,1100
11,COc1cccc(-c2[nH]ncc2CNS(=O)(=O)c2cc(OC)ccc2OC)c1,756
12,O=C(Cc1ccccc1)N1CCC(Nc2cccn3ncnc23)CC1,713
13,CC(C)C(=O)Nc1ccc(N2CCN(c3ccccc3)C2=O)nc1,832
14,COCc1nn(CC2CC2)c2c1CN(C(=O)Cc1ccccc1)CC2,732
15,Cc1ccccc1CNC(=O)C1(C)Oc2cccnc2N(C(C)C)C1=O (stereo not given),978
16,COc1ccc(Cc2nc(-c3cccc(-c4ccn[nH]4)c3)no2)cc1OC,830
17,Cc1cc(C(=O)Nc2ccc3scnc3c2)no1,645
18,CCCNc1cc(N2CCCC(CCC(=O)N3CCN(c4ncccn4)CC3)C2)ncn1 (stereo not given),637
19,CC(=O)c1ccc(NC(=O)CN2C(=O)NC3(CCC(C)CC3)C2=O)cc1 (stereo not given),762
20,CN(Cc1cccn1C)C(=O)NC1CCCCC1,836
21,CC(C)CCNC(=O)c1cc2c(s1)N(C)CCC2,928
